Reference: ChEMBL document CHEMBL3507680, “University of Dundee, Gates Library screen for HepG2 cell viability”

Assay: Human HepG2 cell viability assay in 384 well format
Type: toxicity, cell-based
Set-up: dose 125 nL, time 70.5 hour; concentration not given beside the values
Conditions: HepG2 cells, read-out: Inhibition

Structure (SMILES)	cytotoxicity at 70.5 h [%]
COc1nonc1NCn1nc(C)cc1C	51.2
COCC(=O)N1CCN(S(=O)(=O)c2ccccc2)[C@@H](C(=O)OC)C1	-5.08
NC(=O)CN1C(=O)CO[C@H]2CN(Cc3ccccc3)C[C@H]21	-0.937
CN1CCC(N2CCOC[C@H]2c2nc(C(C)(C)C)c[nH]2)CC1	0.765
O[C@@H]1C[C@@H](c2nc(-c3ccccc3)no2)N(Cc2ccncc2)C1	-1.52
CC1=C[C@@H](CN2CCN(C)CC2)[C@H](C(C)C)C[C@H]1Cc1nnc(C)o1	-9.92
CN(C)Cc1cc(CC2(NCc3ccc(C#N)cc3)COC2)no1	-6.01
CCNC(=O)N1C[C@@H]2OCC(=O)N(C)[C@@H]2C1	7.93
CC(C)(C)c1c[nH]c([C@@H]2COCCN2C2CCNCC2)n1	-0.308
OCCc1cc(CC2(NCc3ccc(C(F)(F)F)cc3)COC2)no1	-6.19
CCN(CC)CC[C@H]1CN(C(=O)c2ccc(F)cc2)CC[C@H]1CC(=O)O	-2.08
CC(C)NC(=O)[C@@H]1Cc2[nH]cnc2CN1CCCc1ccccc1	6.69
CC1(C)[C@H](Cc2cc(CN3CCCCC3)on2)C[C@@H]1NS(C)(=O)=O	-4.26
O=C(Cc1ccccc1)NC[C@H]1Cn2ccnc2CO1	5.13
COc1ccc2c(c1)nc1n2[C@@H](CN(C2CCC2)C2CCC2)COC1	1.4
O[C@@H]1C[C@@H](c2nc(-c3cccnc3)no2)N(C2CCOCC2)C1	16.4
CCNC(=O)N1C[C@@H]2OCC(=O)N(CC3CC3)[C@@H]2C1	-3.79
CS(=O)(=O)Nc1ccc([C@H]2OCC(=O)N[C@@H]2CO)cc1	2.21
O=C(NC[C@H]1OC[C@@H](NC2CCC(F)(F)CC2)[C@@H]1O)C1CC1	-7.04
COc1ccc(CN[C@@H]2CO[C@H](CNC(=O)NC(C)C)[C@H]2O)cc1	-5.02
CC(C)NC(=O)NC[C@H]1OC[C@@H](NCc2ccccc2O)[C@@H]1O	-2.12
CC(C)NC(=O)NC[C@H]1OC[C@@H](NCc2cccs2)[C@@H]1O	9.03
COc1ccc(S(=O)(=O)N2CCOC[C@H](Oc3cnccn3)C2)cc1	-0.146
Cc1cc(C(=O)N2CCOC[C@H](Oc3cnccn3)C2)c(C(F)(F)F)o1	2.77
CC(=O)N1CCC(NC2(Cc3cc(C(C)(C)O)on3)COC2)CC1	-7.16
O=C(c1ccccn1)N1C[C@@H]2OCC(=O)N(CC3CCCCC3)[C@@H]2C1	-6.75

Structure (SMILES)	cytotoxicity at 70.5 h [%]
CC(C)(C)c1coc([C@@H]2COCCN2Cc2cnc3ccccc3c2)n1	0.0852
COCCN1CCN(C(=O)C[C@@H]2C[C@@H](C(C)C)[C@H](CC#N)C=C2C)CC1	1.71
COC(=O)c1cccc2nc([C@H]3CCN(Cc4ccccc4C)C3)oc12	-14.2
FC(F)(F)c1ccc2nc([C@H]3CCN(C4CCCCC4)C3)[nH]c2c1	5.15
CCN(CC)C1(Cc2cc(COC)on2)COC1	-0.489
CS(=O)(=O)N1C[C@@H]2OCC(=O)N(CC3CC3)[C@@H]2C1	-7.03
O=C(c1cnccn1)N1C[C@@H]2OCC(=O)N(CC3CCCCC3)[C@@H]2C1	-0.096
O=C1N(Cc2cccnc2)C[C@H]2CN(C3CCOCC3)CCN12	-0.196
O=C(NC[C@H]1OC[C@@H](NC2CCC(F)(F)CC2)[C@@H]1O)c1cccs1	-5.94
c1cncc(O[C@H]2COCCN(Cc3c[nH]c4ccccc34)C2)c1	4.1
O=C1N[C@@H]2CCN(C(=O)C3CCCC3)[C@@H]2C(=O)N1c1ccc(F)cc1	-2.52
Cn1cncc1-c1nnc([C@H]2CCN(Cc3ccc(F)c(F)c3)C2)o1	-0.644
Cn1cc(CN2C[C@@H](F)[C@@H](OCc3nc4cnccc4[nH]3)C2)cn1	-1.11
NC(=O)c1cccc2nc([C@H]3CCN(Cc4ccccn4)C3)[nH]c12	-0.598
FC(F)(F)c1ccc2nc([C@H]3CCN(C4CCC4)C3)[nH]c2c1	-7.81
O=C(NC[C@H]1OC[C@@H](NCc2ccc(F)cc2)[C@@H]1O)N1CCOCC1	-8.58
CC(=O)N1CCC(NC[C@H]2Cn3c(-c4ccccc4)cnc3CO2)CC1	-5.76
COC(=O)[C@@H]1Cc2ncn(C)c2CN1S(=O)(=O)Cc1ccccc1	-2.85
O=C1CO[C@H](c2ccc(NS(=O)(=O)c3ccccc3)cc2)[C@@H](CO)N1	11.6
CCCNC(=O)C[C@@H]1CCN(C(=O)c2cccnc2)C[C@@H]1CC	12.5
COCC(=O)N1CCN(C(=O)C2CCCCC2)[C@@H](C(=O)OC)C1	1.64
COCCNC(=O)[C@H]1CN2CCC1C[C@@H]2Cn1cc(C(C)(C)C)nn1 (stereo partly drawn)	-0.883
CNCc1cn(C[C@H]2C[C@@H]3CCN2C[C@@H]3C(=O)NC2CCCCC2)nn1	-5.79
COCc1cn(C[C@H]2C[C@@H]3CCN2C[C@@H]3C(=O)N2CCOCC2)nn1	-3.96
CNCc1cn(C[C@H]2CC3CCN2C[C@@H]3C(=O)Nc2ccccc2)nn1 (stereo partly drawn)	-9.94
CC[C@H]1CN2CC[C@H]1C[C@@H]2CNC(=O)Nc1ccc(Br)cc1	-0.477

Structure (SMILES)	cytotoxicity at 70.5 h [%]
CC[C@H]1CN2CC[C@H]1C[C@@H]2CNC(=O)Nc1cc(OC)cc(OC)c1	0.42
CC[C@H]1CN2CC[C@H]1C[C@@H]2CNC(=O)Nc1ccccc1	-2.2
CC(C)(C)CC(=O)N1CC[C@H]2NC(=O)N(Cc3ccccc3)C(=O)[C@H]21	-4.69
O=C(NC[C@H]1C[C@@H]2CCN1C[C@@H]2CN1CCOCC1)Nc1ccsc1	-12.4
CC(=O)NC[C@H]1C[C@@H]2CCN1C[C@@H]2c1cc(-c2cccs2)nn1C	-10.2
CCNC(=O)NC[C@H]1C[C@@H]2CCN1C[C@@H]2c1cc(-c2cccs2)nn1C	-3.63
Cn1nc(-c2ccccc2)cc1[C@H]1CN2CC[C@H]1C[C@@H]2CNS(C)(=O)=O	-6.73
CC1CCN(C[C@H]2CN3CC[C@H]2C[C@@H]3CNC(=O)Nc2ccsc2)CC1	10.5
CC1CCN(C[C@H]2CN3CC[C@H]2C[C@@H]3CNC(=O)c2ccco2)CC1	19.1
O=S(=O)(NC[C@H]1C[C@@H]2CCN1C[C@@H]2CN1CCOCC1)c1ccccc1	-0.151
COc1ccccc1CN1CCC2(CCC(C(=O)N(C)C)O2)CC1 (stereo not drawn)	-8.03
CN(C)C(=O)CN1CCC2(CCN(S(=O)(=O)C3CC3)CC2)C1=O	-11.2
c1cc(CN2CCC3(CC2)COC(COCC2CC2)C3)cs1 (stereo not drawn)	-6.27
Cc1cccc(CN2CCC3(CCC(C(=O)N(C)C)O3)CC2)n1 (stereo not drawn)	-9.32
O=C1CC[C@]2(CC[C@@H](NC(=O)NCc3ccccc3)CC2)N1	15.6
CC(=O)N1CCC2(CCCN(S(=O)(=O)c3ccccc3)C2)C1 (stereo not drawn)	20
Cc1cc(C(=O)N2CC[C@@H]3CN(CCC(C)C)S(=O)(=O)[C@@H]3CC2)no1	-2.89
C[C@H]1C[C@H]2CN(S(=O)(=O)c3ccc(F)cc3)CC[C@@H]2O1	-3.04
CS(=O)(=O)N1CCCC(C(=O)Nc2cnn(Cc3ccc(F)cc3)c2)C1 (stereo not drawn)	0.36
CS(=O)(=O)N1CCCC(C(=O)Nc2cnn(COCC(F)(F)F)c2)C1 (stereo not drawn)	3.12
O=C1CCC(=O)N1c1nn(Cc2ccccc2)cc1Cl	20.6
O=C1CCC(=O)N1c1nn(Cc2ccccc2Cl)cc1Cl	-0.484
CCc1nc(C)cn1C(=O)Nc1ccc(C)cc1	-1.55
O=C(O)c1cc(-c2cccs2)nc2c(Br)cnn12	3.58
Cn1c(=O)c2cc(C(=O)NCc3ccncc3)ccc2n(C)c1=O	2.17
CCn1cc(-c2cc(C(F)(F)F)n(CCCN)n2)cn1	1.14

Structure (SMILES)	cytotoxicity at 70.5 h [%]
COC(=O)c1ccc(CNCc2cn(C)nc2C)cc1	1.28
Cc1nn(C)cc1CNCc1ccc(N(C)C)cc1	1.1
CCOCCCNC(=O)Cc1cccs1	-1.71
Cc1cc(-n2cnnn2)n2ncnc2n1	3.71
N#Cc1cc2c(nc1SCc1cc(O)nc(O)n1)CCCCC2	-1.03
Cc1nn(C)cc1-c1cc(C(F)(F)F)c2c(C)nn(CC(=O)O)c2n1	32
COCc1c(C(=O)NC2CCCC2)nnn1-c1ccc(C)cc1	22.4
Cc1ccc(NC(=O)C2=CN=S=N2)cc1	18.8
CCCn1ncc2c(C(=O)Nc3cnn(CC)c3C)cc(C3CC3)nc21	5.37
CCn1ncc(NC(=O)c2cc(C3CC3)nc3c2c(C)nn3C)c1C	35.5
CNC(=O)c1cccc(C2CNCCN2C(C)=O)c1 (stereo not drawn)	14.8
COc1ccc(-c2nccnc2C2CCN(C(C)=O)CC2)cc1	19.6
CNC(=O)[C@@H](c1ccccc1F)N1CCC[C@H]1C(=O)NC1CCOCC1	-12.5
CCNC(=O)[C@@H]1CCCN1C1(C(=O)NC)CCC1	-5.11
CNC(=O)[C@@H](C1CC1)N1CCC[C@H]1C(=O)NCC(C)C	-7.95
CNC(=O)[C@@H](c1ccccc1OC)N1CCC[C@H]1C(=O)N1CCC1	-5.76
CC(C)CN1CCC2(CCCNC2)C1=O (stereo not drawn)	-10.9
O=C1CC2(CCNCC2)C(=O)N1c1cccc(F)c1	-0.489
COc1cccc(N2C(=O)CC3(CCCNC3)C2=O)c1 (stereo not drawn)	-5.35
COc1cccc(N2C(=O)CC3(CCNCC3)C2=O)c1	-4.17
CNC(=O)C(C)(C)N1CCC[C@H]1C(=O)NCCN1CCCC1	5.17
CC(=O)N1CCCCC12CCCN(Cc1ccco1)C2 (stereo not drawn)	-14.9
CC(C)C(=O)N1CC[C@H]2N(C)CC[C@@]2(C(=O)N2CCOCC2)CC1	2.86
Cc1cccnc1N1CC2(CCN(Cc3cnn(C)c3)C2)C1	-10.7
CN(C)C[C@H]1C[C@@H]2CN(Cc3ccoc3)C[C@@H]2O1	-12.5
